Values quoted from earlier work, collected in patent publication US20250031692A1, “HIGH LOAD SUSPENSION CONCENTRATE COMPOSITIONS” (ADAMA AGAN LTD., priority 2021, published 2025).

Legend:
[1] = target: T1, recombinant Fatty Acid Elongation 1 (FAE1) of Arabidopsis (Arabidopsis thaliana, UniProt Q38860)
T1 sequence (Q38860 1-506): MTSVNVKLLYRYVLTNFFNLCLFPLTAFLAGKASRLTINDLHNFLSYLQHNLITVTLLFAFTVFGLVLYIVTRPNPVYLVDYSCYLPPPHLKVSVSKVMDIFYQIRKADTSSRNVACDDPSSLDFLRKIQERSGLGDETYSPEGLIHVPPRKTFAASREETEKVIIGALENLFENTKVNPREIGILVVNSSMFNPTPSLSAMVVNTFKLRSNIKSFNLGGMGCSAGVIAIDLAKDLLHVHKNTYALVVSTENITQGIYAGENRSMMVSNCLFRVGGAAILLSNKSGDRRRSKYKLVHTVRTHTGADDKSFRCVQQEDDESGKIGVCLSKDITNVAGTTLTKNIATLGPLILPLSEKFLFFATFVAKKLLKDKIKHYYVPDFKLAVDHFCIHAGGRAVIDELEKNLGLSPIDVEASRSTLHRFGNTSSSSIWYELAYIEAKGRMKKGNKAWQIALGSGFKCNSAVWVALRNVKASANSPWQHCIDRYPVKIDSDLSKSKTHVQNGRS

[2] = system: VLCFAE activity of the microsomal fraction of etiolated barnyard millet seedlings
[3] = system: Echinochloa spp. and other annual weeds; details: 150-200 g a.i./ha; long residual activity
[4] = system: grass and broadleaf weeds; details: at lower application rates compared with other commercial herbicides

| SMILES | inhibition of VLCFAE activity [1] | inhibition of VLCFAE activity [2] | herbicidal activity [3] | herbicidal activity [4] |
| --- | --- | --- | --- | --- |
| CCOc1cc(Cl)c(CS(=O)(=O)C2=NOC(C)(C)C2)cc1Cl [Fenoxasulfone, 3-[(2,5-dichloro-4-ethoxyphenyl)methylsulfonyl]-5,5-dimethyl-4H-1,2-oxazole] | inhibited by fenoxasulfone in a time-dependent manner | inhibited by fenoxasulfone in a time-independent manner | excellent herbicidal activity | – |
| Cn1nc(C(F)(F)F)c(CS(=O)(=O)C2=NOC(C)(C)C2)c1OC(F)F [Pyroxasulfone] | – | – | – | excellent herbicidal activity |
